Measured values published in PubChem BioAssay (NCI).
Several values for one entry are separate records, joined by “and”; a condition that tells them apart may be missing. Equal values may be shown once.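 1) Cells in 96-well plates. 2) Compound, 48 h, 5 concentrations. 3) Linear interpolation between surrounding doses. 4) Unreached endpoint = highest concentration. GI50 is the concentration that inhibits growth by half. TGI: total growth inhibition.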

System: MDA-MB-468 breast
Experiment: inhibition of tumour cell growth, NCI panel, 48 h

| SMILES | GI50 | TGI |
| --- | --- | --- |
| CN(C)CCOc1ccc(-c2nc(-c3ccc4c(c3)CC/C4=N\O)c(-c3ccncc3)[nH]2)cc1 | 3.63 µM and 2.74 µM | 7.37 µM and 24.4 µM |
| O=C(NC1CCN(Cc2ccccc2)CC1)c1cc(-c2ccncc2)nc2ccc(Cl)cc12 | 6.82 µM | 37 µM |
| Cc1ccc([N+](=O)[O-])cc1NC(=O)Nc1cccc(F)c1 | 3.6 µM | 24.7 µM |
| Clc1ccc(CSC(Cn2ccnc2)c2ccc(Cl)cc2Cl)cc1 (stereo not drawn) | 1.39 µM | 3.37 µM |
| COc1ccc(CC(C)=C(c2ccc(OCCN3CCCC3)cc2)c2ccc(OCCN3CCCC3)cc2)cc1 | 0.777 µM | 3.1 µM |
| C=CC[n+]1c(/C=C/C=C2\N(C)c3ccccc3C2(C)C)sc2ccc(OC)cc21 | 0.0297 µM | 1.05 µM |
| Cn1cc(-c2ccc3c(Nc4cccc(NC(=O)Nc5cccc(F)c5)c4)ncnc3c2)cn1 | 0.107 µM | 1.64 µM |
| Nc1ccc2c(c1)C(=O)C(=O)c1c-2nc2ccccn12 | 1.53 µM | 3.11 µM |
| OC(c1cccc(-n2ccc(C(F)(F)F)n2)c1)c1cnccc1NC1CCCCCC1 (stereo not drawn) | 1.64 µM | 3.28 µM |
| F | 4500 µM | > 6870 µM |
| FC(F)(F)Oc1cccc(-c2cnc3ccc(-c4ccncc4)nn23)c1 | 0.59 µM | 3.77 µM |
| Nc1cc(-c2c[nH]c3ccc(F)cc23)nc2cc(-c3c[nH]c4ccc(F)cc34)nn12 | 2.01 µM | 3.84 µM |
| CC1(C)N=C(N)N=C(N)N1c1cccc(CCCCc2cccc(S(=O)(=O)F)c2)c1 | 0.748 µM | 26.4 µM |
| CC(C)[C@]12O[C@H]1[C@@H]1O[C@]13[C@]1(O[C@H]1C[C@H]1C4=C(CC[C@@]13C)C(=O)OC4)[C@@H]2O | 0.0176 µM | 0.0385 µM |
| N#Cc1c(-c2ccccc2)nc(SCC2CO2)nc1N1CCOCC1 (stereo not drawn) | 4.15 µM | > 68.4 µM |
| C[C@@H]1COCCN1c1cc(C2([S@](C)(=N)=O)CC2)nc(-c2ccnc3[nH]ccc23)n1 | 3.12 µM and 4.14 µM | 27.2 µM and > 10 µM |
| C=C1C(=O)O[C@H]2[C@H]1CC/C(CNC(=O)Cc1c[nH]c3ccccc13)=C\CC[C@@]1(C)O[C@@H]21 | 0.795 µM | 2.73 µM |

| SMILES | GI50 | TGI |
| --- | --- | --- |
| CC(=O)N[C@@H](Cc1ccc(OP(=O)(O)O)cc1)C(=O)N[C@H]1CCC(=O)N2CCC[C@@H](C(=O)NCc3ccc(Cl)cc3)N2C1=O | > 25 µM | > 25 µM |
| Cc1ccc2c(c1)C(C)Cc1c(ncnc1-n1cnc3ccccc31)N2C (stereo not drawn) | 0.262 µM | 23.2 µM |
| N#Cc1cnc2ccc(-c3cnc(N)nc3)cc2c1N1CCc2cc(F)c(Cl)cc21 | 0.38 µM | 2.04 µM |
| COc1cc(NS(C)(=O)=O)ccc1Nc1c2ccc([N+](=O)[O-])cc2nc2c(C)cccc12 | 0.246 µM | 0.873 µM |
| COc1ccc(C2CC(c3cc(OC)c(OC)c(OC)c3)=NO2)cc1OCCCCOc1cc2c(cc1OC)C(=O)N1CCC[C@H]1C=N2 (stereo partly drawn) | 1.34 µM | 2.97 µM |
| COc1ccc2oc(=O)cc(C(c3ccc[nH]3)c3ccc[nH]3)c2c1 | 0.344 µM | 3.34 µM |
| CCNC(=O)[C@@H]1CCCN2C(=O)CC[C@H](NC(=O)[C@H](Cc3ccc(OP(=O)(O)O)cc3)NC(C)=O)C(=O)N12 | > 25 µM | > 25 µM |
| CCN1CCN(Cc2ccc(-c3cc4c(N[C@H](C)c5ccccc5)ncnc4[nH]3)cc2)CC1 | 0.0202 µM and 0.0419 µM | 0.286 µM and 0.481 µM |
| Cc1cccc(NC(=O)CCc2ccc(N3C(N)=NC(N)=NC3(C)C)cc2)c1 | 0.692 µM | > 51.4 µM |
| CCS(=O)(=O)N1CCC(C(C)n2c(C)c(C(=O)NCc3c(OC)cc(C)[nH]c3=O)c3ccccc32)CC1 (stereo not drawn) | 92 µM | > 100 µM |
| CCN(CC)CCOCC[C@H]1CC[C@H]2[C@@H]3[C@H](C)Cc4cc(OS(N)(=O)=O)ccc4[C@H]3CC[C@]12C | 0.259 µM | 1.36 µM |
| COc1cc2c(cc1O)CC[C@@H]1[C@@H]2CC[C@]2(C)[C@@H](NCCN(C)C)CC[C@@H]12 | 0.126 µM | 0.499 µM |
| CC12CCC3C(CCC4Cc5[nH]c6ccccc6c5CC43C)C1CCC2O (stereo not drawn) | 2.78 µM | > 100 µM |
| Nc1c(C(=O)c2cccc(CCCN3CCOCC3)c2)cnn1-c1ccc(F)cc1 | > 20.1 µM | > 25 µM |
| COc1ccc2[nH]c(=O)c3c4ccccc4cn3c2c1 | 0.179 µM | 1.36 µM |
| COc1cc(C(=O)/C=C/c2c(C)n([O-])c3ccc(C)cc3[n+]2=O)cc(OC)c1OC | 2.59 µM | 9.94 µM |
| COC(=O)CCC(=O)C(=O)OC | 90800 µM | > 100000 µM |
